For test [1], the target named is Prostaglandin G/H synthase 1 (Homo sapiens, UniProt P23219). The test is described as follows: Inhibition of human COX1 using [14C]arachidonic acid as substrate preincubated for 5 mins followed by substrate addition measured after 2 mins by TLC.
The test system of test [2] is Rattus norvegicus. The test is described as follows: Antiinflammatory activity in albino rat assessed as inhibition of carrageenan-induced paw edema at 10 umol/kg, sc pretreated for 1 hr followed by carrageenan challenge measured after 4 hrs by plethysmographic method relative to control. The class given is functional. On the technique in general: Carrageenan injected into the paw causes an acute inflammation.

The species named for a further test is Homo sapiens. The test is described as follows: Selectivity ratio of IC50 for human COX1 to IC50 for human COX2.
Test [3] in a line: Non-competitive inhibition of baker's yeast alpha-glucosidase using pNPG as substrate preincubated for 10 mins followed by substrate addition measured after 30 mins by Lineweaver-Burk plot analysis. Set-up: species or system Saccharomyces cerevisiae.
For test [4], the target named is Intestinal-type alkaline phosphatase (Bos taurus, UniProt P19111).
Intestinal-type alkaline phosphatase, sequence (P19111 whole entry): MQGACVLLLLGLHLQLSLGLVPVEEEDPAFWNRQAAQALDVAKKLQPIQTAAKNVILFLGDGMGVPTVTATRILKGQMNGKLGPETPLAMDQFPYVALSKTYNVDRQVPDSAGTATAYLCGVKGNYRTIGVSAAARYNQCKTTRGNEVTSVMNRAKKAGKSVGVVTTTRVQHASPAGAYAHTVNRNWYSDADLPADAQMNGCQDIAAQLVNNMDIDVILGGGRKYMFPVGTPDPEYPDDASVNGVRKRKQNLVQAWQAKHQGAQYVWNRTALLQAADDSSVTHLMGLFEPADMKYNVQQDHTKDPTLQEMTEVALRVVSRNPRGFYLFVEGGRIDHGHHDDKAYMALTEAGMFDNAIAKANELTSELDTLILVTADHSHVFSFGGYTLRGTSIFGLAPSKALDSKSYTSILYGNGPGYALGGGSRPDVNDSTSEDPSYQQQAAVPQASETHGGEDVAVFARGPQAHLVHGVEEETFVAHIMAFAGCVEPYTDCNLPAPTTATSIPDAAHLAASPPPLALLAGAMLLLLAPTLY
Description: Inhibition of calf intestinal alkaline phosphatase using pNPP as substrate preincubated for 10 mins followed by substrate addition measured after 30 mins
Test [5] addresses Aldo-keto reductase family 1 member B1 (Bos taurus, UniProt P16116). Nature of the test: Inhibition of calf lens ALR2 using D,L-glyceraldehyde as substrate preincubated for 5 mins followed by NADPH addition measured after 10 mins by UV spectrophotometric method.
For test [6], the target named is T1, Acetylcholinesterase (Homo sapiens, UniProt P22303).
T1 sequence (P22303 whole entry): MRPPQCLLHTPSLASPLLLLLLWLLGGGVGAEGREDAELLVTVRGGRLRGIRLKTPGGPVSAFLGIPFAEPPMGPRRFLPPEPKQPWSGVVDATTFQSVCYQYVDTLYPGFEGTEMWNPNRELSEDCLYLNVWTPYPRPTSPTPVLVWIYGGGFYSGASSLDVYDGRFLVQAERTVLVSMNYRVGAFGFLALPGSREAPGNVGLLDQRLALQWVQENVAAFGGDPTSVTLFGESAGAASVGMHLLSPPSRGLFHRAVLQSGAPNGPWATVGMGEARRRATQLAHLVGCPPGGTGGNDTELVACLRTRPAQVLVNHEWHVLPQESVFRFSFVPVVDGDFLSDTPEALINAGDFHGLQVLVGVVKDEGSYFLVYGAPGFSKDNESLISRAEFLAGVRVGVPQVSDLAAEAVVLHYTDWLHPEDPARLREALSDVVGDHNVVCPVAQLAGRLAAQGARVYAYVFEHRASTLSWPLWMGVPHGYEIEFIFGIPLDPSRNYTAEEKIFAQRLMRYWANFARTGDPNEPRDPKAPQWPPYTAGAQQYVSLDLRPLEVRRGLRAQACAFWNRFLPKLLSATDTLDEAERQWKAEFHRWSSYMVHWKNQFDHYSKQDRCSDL
Test [7] has as its target Cholinesterase (Homo sapiens, UniProt P06276). The test is described as follows: Inhibition of human plasmatic BuChE using butylthiocholine as substrate preincubated for 5 mins followed by substrate addition measured at 1 min time interval by Ellman's method. In general terms: Ellman's reagent forms a yellow product with free thiols.
The target of test [8] is T1, Acetylcholinesterase. The test is described as follows: Potency index, ratio of 7-MEOTA IC50 to compound IC50 for human erythrocyte AChE.
The target of test [9] is Aldo-keto reductase family 1 member B1 (Bos taurus) (UniProt P16116). The test is described as follows: Potency index, ratio of valproic acid IC50 to compound IC50 for bovine kidney ALR1.
The test system of a further test is Saccharomyces cerevisiae. Nature of the test: Potency index, ratio of acarbose IC50 to compound IC50 for Saccharomyces cerevisiae alpha-glucosidase.
Test [10] concerns Rattus norvegicus. The test is described as follows: Antiinflammatory activity in Wistar rat assessed as inhibition of formalin-induced paw oedema at 20 mg/kg, po equiv of indomethacin pretreated for 1 hr followed by formalin addition measured up to 6 hrs post dose by plethysmographic method relative to control. It counts as functional.
The target in test [11] is Cholinesterase (Equus caballus, UniProt P81908). The test is described as follows: Inhibition of equine serum BChE using butyrylthiocholine iodide as substrate preincubated for 15 mins followed by substrate addition by Ellman's method.
Cholinesterase (Equus caballus, UniProt P81908), sequence (P81908 whole entry): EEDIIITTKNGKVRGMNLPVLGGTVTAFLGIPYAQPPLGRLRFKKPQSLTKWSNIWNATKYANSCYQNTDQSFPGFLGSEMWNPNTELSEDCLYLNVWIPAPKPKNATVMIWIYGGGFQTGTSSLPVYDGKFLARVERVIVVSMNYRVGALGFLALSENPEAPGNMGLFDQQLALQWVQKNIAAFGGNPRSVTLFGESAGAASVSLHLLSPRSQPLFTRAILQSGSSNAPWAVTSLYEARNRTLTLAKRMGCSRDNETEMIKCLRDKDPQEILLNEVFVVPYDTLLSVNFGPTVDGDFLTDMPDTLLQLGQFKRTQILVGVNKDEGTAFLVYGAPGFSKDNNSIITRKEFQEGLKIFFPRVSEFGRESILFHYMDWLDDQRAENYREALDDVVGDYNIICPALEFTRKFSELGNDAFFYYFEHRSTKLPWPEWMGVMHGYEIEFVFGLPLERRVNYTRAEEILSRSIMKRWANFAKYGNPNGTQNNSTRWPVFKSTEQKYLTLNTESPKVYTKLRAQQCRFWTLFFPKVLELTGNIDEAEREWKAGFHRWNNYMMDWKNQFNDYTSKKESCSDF
Test [12] has as its target Cholinesterase (Equus caballus) (UniProt P81908). Nature of the test: Potency index, ratio of galanthamine IC50 to compound IC50 for equine serum BChE.
The next test is filed under the species Bos taurus. Nature of the test: Selectivity index, ratio of IC50 for bovine kidney ALR1 to IC50 for calf lens ALR2.
Test [13] deals with Aldo-keto reductase family 1 member B1 (Bos taurus) (UniProt P16116). The test is described as follows: Potency index, ratio of sulindac IC50 to compound IC50 for calf lens ALR2.
Test [14] addresses Lipoxygenase (Glycine max) (UniProt Q39829). Nature of the test: Potency index, ratio of NDGA IC50 to compound IC50 for soybean lipoxygenase.
A further test deals with Lipoxygenase (Glycine max, UniProt Q39829).
The next test has as its target T2, Tyrosinase (Agaricus bisporus, UniProt O42713).
T2 sequence (O42713 whole entry): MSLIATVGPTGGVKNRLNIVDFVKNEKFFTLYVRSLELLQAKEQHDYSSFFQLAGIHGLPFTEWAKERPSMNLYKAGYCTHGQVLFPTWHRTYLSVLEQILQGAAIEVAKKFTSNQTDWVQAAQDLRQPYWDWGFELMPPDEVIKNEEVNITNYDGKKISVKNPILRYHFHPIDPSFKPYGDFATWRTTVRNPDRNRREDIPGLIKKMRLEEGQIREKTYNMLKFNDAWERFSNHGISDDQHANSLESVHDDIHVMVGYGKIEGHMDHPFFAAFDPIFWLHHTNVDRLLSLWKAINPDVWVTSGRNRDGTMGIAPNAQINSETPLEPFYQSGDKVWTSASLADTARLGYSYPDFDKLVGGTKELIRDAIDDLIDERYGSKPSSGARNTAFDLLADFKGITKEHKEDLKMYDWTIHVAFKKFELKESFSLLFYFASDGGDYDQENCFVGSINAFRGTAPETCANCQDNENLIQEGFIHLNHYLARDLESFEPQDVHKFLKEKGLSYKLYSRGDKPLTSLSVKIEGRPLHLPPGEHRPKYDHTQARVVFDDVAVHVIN
Nature of the test: Inhibition of mushroom tyrosinase using L-DOPA as substrate preincubated for 10 mins followed by substrate addition measured after 20 mins.

Prostaglandin G/H synthase 1, sequence (P23219 whole entry): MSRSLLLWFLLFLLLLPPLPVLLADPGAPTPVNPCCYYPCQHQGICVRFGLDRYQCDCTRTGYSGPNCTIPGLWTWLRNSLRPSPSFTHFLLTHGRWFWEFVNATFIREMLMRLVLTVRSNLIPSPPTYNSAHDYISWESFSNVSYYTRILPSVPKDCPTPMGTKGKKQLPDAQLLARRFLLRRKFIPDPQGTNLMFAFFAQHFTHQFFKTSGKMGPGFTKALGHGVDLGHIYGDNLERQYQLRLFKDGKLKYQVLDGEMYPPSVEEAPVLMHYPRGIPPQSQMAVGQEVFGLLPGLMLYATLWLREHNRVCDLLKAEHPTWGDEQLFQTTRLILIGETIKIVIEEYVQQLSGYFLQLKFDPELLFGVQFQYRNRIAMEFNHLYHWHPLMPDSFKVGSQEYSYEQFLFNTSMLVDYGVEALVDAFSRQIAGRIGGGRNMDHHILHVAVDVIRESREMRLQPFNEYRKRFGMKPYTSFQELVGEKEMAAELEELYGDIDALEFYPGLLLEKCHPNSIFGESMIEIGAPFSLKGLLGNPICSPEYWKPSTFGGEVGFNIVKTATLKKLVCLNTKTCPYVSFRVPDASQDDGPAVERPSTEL
Cholinesterase (Equus caballus), sequence (P81908 whole entry): as the sequence (P81908 whole entry) above
Cholinesterase (Homo sapiens, UniProt P06276), sequence (P06276 whole entry): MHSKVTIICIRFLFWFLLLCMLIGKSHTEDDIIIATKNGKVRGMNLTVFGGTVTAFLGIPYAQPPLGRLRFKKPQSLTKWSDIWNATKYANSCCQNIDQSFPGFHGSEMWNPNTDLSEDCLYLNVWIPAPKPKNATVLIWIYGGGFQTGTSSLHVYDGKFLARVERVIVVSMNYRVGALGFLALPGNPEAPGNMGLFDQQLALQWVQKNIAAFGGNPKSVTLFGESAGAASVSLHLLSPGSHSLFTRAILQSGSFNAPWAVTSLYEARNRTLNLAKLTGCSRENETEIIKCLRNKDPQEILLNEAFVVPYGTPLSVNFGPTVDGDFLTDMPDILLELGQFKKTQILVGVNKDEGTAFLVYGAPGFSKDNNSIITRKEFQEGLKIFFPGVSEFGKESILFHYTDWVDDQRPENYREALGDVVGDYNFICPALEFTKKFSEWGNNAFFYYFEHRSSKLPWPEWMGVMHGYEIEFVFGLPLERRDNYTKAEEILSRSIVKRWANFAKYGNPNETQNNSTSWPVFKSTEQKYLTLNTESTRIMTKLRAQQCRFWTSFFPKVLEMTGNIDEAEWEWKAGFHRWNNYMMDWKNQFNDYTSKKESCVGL

Usually IC50 stands for the concentration at which inhibition is half-maximal. What is called inhibition in vivo is the percentage by which the read-out fell short of the control. As to `C/C(=N\N=C1\CC(C)C(=O)N1C)c1cc2ccccc2oc1=O` (configuration not stated), the IC50 in test [1] lay within 56 to 167 µM. For the same compound, the inhibition in vivo at 10 µmol/kg in the test on Rattus norvegicus [2] was 92.2%. Moreover, in the test filed under Homo sapiens, the Ratio IC50 came to 223.

What is called Ki is the dissociation constant of the complex between target and ligand, obtained from inhibition or displacement. The low end stands for higher affinity, the high end for lower affinity. `O=C(N/N=C/c1cc(Cl)cc(Cl)c1O)c1nc(-c2cc3ccccc3oc2=O)cs1` yielded an inhibition constant (Ki) in [3] of 6.86 µM.

In the case of `Cc1ccc(-n2c(-c3cc4ccccc4oc3=O)cs/c2=N/NC(=O)c2cc3ccccc3oc2=O)c(C)c1`, the IC50 in test [4] came to 1.38 µM.

For the compound `O=c1oc2ccccc2cc1-c1nn(CNc2ccccc2Cl)c(=S)o1`, in test [5], half-maximal inhibition (IC50) required 0.31 µM.

For `O=C(Cc1cc(=O)oc2cc(O)ccc12)NCCCCCCCNC(=O)c1cccc2c(=O)c3ccccc3[nH]c12`, the figures for the IC50 on Acetylcholinesterase [6] and against Cholinesterase [7] were 5.85 µM and 32.5 µM, respectively. Moreover, on Acetylcholinesterase [8], the Ratio IC50 turned out to be 3.

As to `CCN1C(C)=CC/C1=N/N=C(\C)c1cc2ccccc2oc1=O`, the IC50 in [1] lay within 56 to 167 µM. For the same compound, the inhibition in vivo at 10 µmol/kg with Rattus norvegicus [2] was 88.9%.

For the compound `C/C(=N\Nc1nc(-c2cc3ccccc3oc2=O)cs1)c1ccc(Cl)cc1N`, the Ratio IC50 in test [9] is 125.

In the case of `O=C(Cn1c(Cc2ccc(Br)cc2)nc2ccccc2c1=O)NNC(=O)c1cc2ccccc2oc1=O`, the Ratio IC50 in the test on Saccharomyces cerevisiae was 4 to 5.

On to `CCCCNCn1nc(-c2cc3ccccc3oc2=O)oc1=S`, for which the Ratio IC50 in test [9] worked out at 17.

Consider `O=c1oc2cc(Cl)ccc2cc1-c1nc2ccccc2[nH]1`, for which, in the test with Rattus norvegicus [10], the inhibition in vivo at 20 mg/kg is 47%.

As to `O=c1oc2ccccc2cc1-c1nn(CN2CCOCC2)c(=S)o1`, in test [5], the IC50 is 0.34 µM.

Compound `CCOC(=O)C1=C(C)N(CC)/C(=N\N=C(/C)c2cc3ccccc3oc2=O)C1` displayed an IC50 in [1] of 56 to 167 µM. For the same compound, the inhibition in vivo at 10 µmol/kg in the test on Rattus norvegicus [2] came out at 94.5%.

On Cholinesterase [11], `O=C(Nc1ccc(F)cc1)Nc1nc(-c2cc3cc([N+](=O)[O-])ccc3oc2=O)cs1` gave an IC50 of 4.93 µM. Also, in test [12], the Ratio IC50 was determined as 4.

On to `O=C(Cn1c(Cc2ccc(Cl)c(Cl)c2)nc2ccccc2c1=O)NNC(=O)c1cc2ccccc2oc1=O`, for which the Ratio IC50 in the test on Saccharomyces cerevisiae was 4 to 5.

`C/C(=N\N=C1\CCC(=O)N1C)c1cc2ccccc2oc1=O` came in with an IC50 in [1] of 56 to 167 µM. Also, in the test with Rattus norvegicus [2], the inhibition in vivo at 10 µmol/kg came to 71.9%.

Take `C/C(=N\Nc1nc(-c2cc3ccccc3oc2=O)cs1)c1ccc(Br)cc1`: the Ratio IC50 in the test filed under Bos taurus worked out at 9.17; in [13] it was 3. The IC50 in [5] was 0.11 µM.

As for `O=c1oc2ccccc2c(O)c1/C=C/n1cnc2c(N3CCCCC3)ncnc21`, the Ratio IC50 in test [14] worked out at 4. Moreover, the IC50 against Lipoxygenase was 6.25 µM.

In turn, `COc1cc(C2CC(c3cc4ccccc4oc3=O)=NN2c2nc(-c3ccc(Br)cc3)cs2)ccc1OCc1ccccc1` (configuration not stated) had an IC50 at Tyrosinase of 0.00458 µM.

Take `CC1=CC/C(=N/N=C(\C)c2cc3ccccc3oc2=O)N1C`: in [1], the IC50 was in the range of 56 to 167 µM. Besides, the inhibition in vivo at 10 µmol/kg in the test on Rattus norvegicus [2] is 90%.

`O=c1oc2ccccc2c(O)c1/C=C/n1cnc2c(NCc3ccccc3)ncnc21` showed an IC50 on Lipoxygenase of 20 µM.

The record behind these values is ChEMBL document CHEMBL4118289, “Developing hybrid molecule therapeutics for diverse enzyme inhibitory action: Active role of coumarin-based structural leads in drug discovery” (Bioorg Med Chem, 2018).
